The values below come from patent US20250235437A1, “PROTEOLYSIS TARGETING CHIMERA (PROTAC) MOLECULE FOR DEGRADATION OF ENL AND CANCER THERAPY” (Baylor College of Medicine, priority 2022, published 2025).

Each structure is given as a SMILES string. Where two headings read alike, the source gives them in different places.

Assay [1] relates to RPMI-8226 cells. Nature of the assay: Anti-proliferative activity, RPMI-8226 cells. The assay is classed as cell-based.
The target of assay [2] is T1, ENL (Homo sapiens, UniProt Q03111).
T1 construct: tested whether the compounds degrade ENL and AF9 in MV4;11 leukemia cells; endogenous in cells; host or cells: MV4;11; Molm-13
T1 sequence (Q03111 1-559): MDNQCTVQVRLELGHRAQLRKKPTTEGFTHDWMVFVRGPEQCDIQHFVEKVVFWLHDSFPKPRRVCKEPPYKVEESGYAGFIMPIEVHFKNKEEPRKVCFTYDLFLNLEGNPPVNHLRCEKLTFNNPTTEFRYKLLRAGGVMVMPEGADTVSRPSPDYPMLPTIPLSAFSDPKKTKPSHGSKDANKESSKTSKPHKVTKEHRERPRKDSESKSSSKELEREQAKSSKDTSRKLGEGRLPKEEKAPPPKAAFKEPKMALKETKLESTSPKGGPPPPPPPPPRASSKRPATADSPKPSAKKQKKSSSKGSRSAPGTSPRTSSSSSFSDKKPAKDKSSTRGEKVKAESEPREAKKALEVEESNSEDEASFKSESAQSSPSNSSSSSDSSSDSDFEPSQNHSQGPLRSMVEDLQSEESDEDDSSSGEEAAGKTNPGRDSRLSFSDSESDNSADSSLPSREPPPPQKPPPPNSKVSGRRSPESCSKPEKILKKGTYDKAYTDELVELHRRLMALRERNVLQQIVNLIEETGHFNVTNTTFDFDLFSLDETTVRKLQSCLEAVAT
In words: ENL degradation in MV4;11 cells (Western blot). Type of assay: cell-based. The settings on record: for DC50: read-out: DC50 (concentration at which a protein is reduced by 50%), ENL. The method, then:
Next, Applicant tested whether the compounds degrade ENL and AF9 in MV4;11 leukemia cells with the .MLL1-AF4 oncogene. Upon compound treatment for 24 h, the cells were washed, lysed, and the lysates subjected to SDS-PAGE (sodium dodecyl sulphate-polyacrylamide gel electrophoresis) followed by detection with Western blot.
Background: Immunoblotting shows a protein as a band on a membrane.

Assay [3] concerns Molm-13 cells. Particulars: Molm13 cells, footnote b: reported in Li, et al. J Hematol Oncol, 2022; read-out: Anti-proliferative activity EC50, Molm13; cited from earlier work.
In assay [4] the target is T2, ENL YEATS-H3K27ac interaction (Homo sapiens, UniProt Q03111).
T2 sequence (Q03111 1-138 limits assumed): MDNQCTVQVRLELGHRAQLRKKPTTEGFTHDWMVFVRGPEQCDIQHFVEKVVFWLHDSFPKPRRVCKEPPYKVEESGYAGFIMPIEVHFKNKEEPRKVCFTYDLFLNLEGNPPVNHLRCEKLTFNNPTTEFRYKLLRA
In words: ALPHA assay, inhibition of ENL YEATS-H3K27ac interaction. Particulars: read-out: IC50, inhibition of ENL YEATS-H3K27ac interaction.

Assay [5] concerns MV4;11 cells. Particulars: footnote b: reported in Li, et al. J Hematol Oncol, 2022, read-out: Anti-proliferative activity EC50, MV4; cited from earlier work.
The subject of assay [6] is Hela cell. Particulars: Hela cells, footnote b: reported in Li, et al. J Hematol Oncol, 2022, read-out: Anti-proliferative activity EC50, Hela, cited from earlier work.
In assay [7] the test system is Hela cell. Nature of the assay: Anti-proliferative activity, Hela cells. Type of assay: cell-based. The settings on record: Hela cells, read-out: Anti-proliferative activity EC50, Hela.
The test system of assay [8] is blood and solid tumor cells. In words: Anti-proliferative activity, panel of blood and solid tumor cells. The assay is classed as cell-based.
In assay [9] the test system is Molm-13 cells. Nature of the assay: Anti-proliferative activity, Molm-13 cells. The assay is classed as cell-based.
Assay [10] concerns RPMI-8226 cells. The settings on record: footnote b: reported in Li, et al. J Hematol Oncol, 2022, read-out: Anti-proliferative activity EC50, RPMI-8226; cited from earlier work.
In assay [11] the test system is MV4;11 cells. In words: Anti-proliferative activity, MV4;11 cells. Type of assay: cell-based.
In assay [12] the target is T1, ENL. Nature of the assay: Rescue of compound 1-mediated ENL degradation in MV4;11 cells. Type of assay: cell-based. Particulars: 2 h pre-treatment then co-treatment with compound 1 (500 nM) for 24 h.
Assay [13] deals with T1, ENL. In words: Nuclear and cytoplasmic ENL levels in MV4;11 cells, 4 days (Western blot). Type of assay: cell-based. An excerpt:
Upon treatment of MV4;11 cells with these compounds for 4 days, cytoplasmic and nuclear proteins were separated and subjected to SDS-PAGE/Western blot.

Where [14] appears, read: Molm13 cells, read-out: Anti-proliferative activity EC50, Molm13.
Setting [15] is: MV4, 11 cells, read-out: Anti-proliferative activity EC50, MV4, 11.

For `C[C@H]1CCCN1Cc1nc2cc(NC(=O)c3ccc4c(cnn4CCCCCCNc4cccc5c4C(=O)N(C4CCC(=O)NC4=O)C5=O)c3)ccc2[nH]1` (stereo partly drawn) [Compound 2], the EC50 was 6 ± 0.91 µM with RPMI-8226 cells [1], 0.49 µM in the assay on Molm-13 cells [3], 1.6 µM in the assay on MV4;11 cells [5] and above 50 µM with Hela cell [6]. At ENL [2] (24 h treatment), the “Dmax (maximal degradation), ENL” value is around 68%. Besides, the DC50 at ENL [2] (24 h treatment) was around 0.05 µM. Moreover, in assay [4], the 50% inhibitory concentration (IC50) is 0.1 µM.
As for `C[C@H]1CCCN1Cc1nc2cc(NC(=O)c3ccc4c(cnn4CCCCNc4cccc5c4C(=O)N(C4CCC(=O)NC4=O)C5=O)c3)ccc2[nH]1` (stereo partly drawn) [Compound 3], the EC50 with RPMI-8226 cells [1] was 19 ± 3.8 µM; in the assay with Molm-13 cells [3], 2.1 µM; in the assay on MV4;11 cells [5] it was 1.2 µM; in the assay with Hela cell [7] (footnote letter missing), above 50 µM. Besides, on ENL [2] (24 h treatment), the “Dmax (maximal degradation), ENL” value turned out to be 89%. Also, the “concentration at which ENL is almost depleted” value on ENL [2] (24 h treatment) is around 500 nM. Further, the DC50 at ENL [2] (24 h treatment) amounted to 0.072 µM. Moreover, in [4], the IC50 is 0.61 µM.
In the case of `C[C@H]1CCCN1Cc1nc2cc(NC(=O)c3ccc4c(cnn4CCCCNC(=O)CC45CC6CC(CC(C6)C4)C5)c3)ccc2[nH]1` [Compound 4], the ENL reduction result at ENL [2] (24 h, even at 5 μM) is “did not reduce ENL”. Besides, the “time to non-selective killing of cancerous cells” value in assay [8] was at most 3 days. Further, the EC50 in assay [8] (blood and solid tumor cells, range over cell lines, read-out: EC50, proliferation) fell in the range of 1 to 3.8 µM.
As to `C[C@H]1CCCN1Cc1nc2cc(NC(=O)c3ccc4c(cnn4C)c3)ccc2[nH]1` [SGC-iMLLT, reference compound], the activity against proliferation entry in the assay with Molm-13 cells [9] (Molm-13 cells) is “weak activity”. Also, the EC50 was 17 µM in the assay with Molm-13 cells [3], above 50 µM with MV4;11 cells [5], above 50 µM in the assay with Hela cell [6] and above 50 µM with RPMI-8226 cells [10].
On to `C[C@H]1CCCN1Cc1nc2cc(NC(=O)c3ccc4c(cnn4CCCCCCCCNC(=O)CC45CC6CC(CC(C6)C4)C5)c3)ccc2[nH]1` [SYC-2521], for which the values for the EC50 with RPMI-8226 cells [1], in the assay with Molm-13 cells [9] (setting [14]) and with Hela cell [7] (3 days incubation) were 2 ± 0.3 µM, 1 ± 0.2 µM and 2.5 ± 1.4 µM, respectively.
`C[C@H]1CCCN1Cc1nc2cc(NC(=O)c3ccc4c(cnn4CCCCCCNC(=O)CC45CC6CC(CC(C6)C4)C5)c3)ccc2[nH]1` [SYC-2522]: the EC50 is 0.68 ± 0.2 µM with RPMI-8226 cells [1], 1 ± 0.05 µM with Molm-13 cells [9] (setting [14]) and 3.2 ± 0.7 µM with Hela cell [7] (3 days incubation).
As for `C[C@H]1CCCN1Cc1nc2cc(NC(=O)c3ccc4c(cnn4CCCCNC(=O)CC45CC6CC(CC(C6)C4)C5)c3)ccc2[nH]1` [SYC-2523], the values for the EC50 with RPMI-8226 cells [1] (3 days incubation), with Molm-13 cells [9] (setting [14]) and in the assay on Hela cell [6] (3 days incubation) were 1.4 ± 0.5 µM, 0.98 ± 0.04 µM and 3.8 ± 1.2 µM, respectively.
For `C[C@H]1CCCN1Cc1nc2cc(NC(=O)c3ccc4c(cnn4CCCNc4cccc5c4C(=O)N(C4CCC(=O)NC4=O)C5=O)c3)ccc2[nH]1` (stereo partly drawn) [SYC-2552], at ENL [2] (24 h treatment), the DC50 was found to be 0.021 µM. In addition, in the assay on Molm-13 cells [9] (setting [14]), the EC50 stood at 2.5 ± 1.1 µM.
On to `C[C@H]1CCCN1Cc1nc2cc(NC(=O)c3ccc4c(cnn4CCCCCNc4cccc5c4C(=O)N(C4CCC(=O)NC4=O)C5=O)c3)ccc2[nH]1` (stereo partly drawn) [SYC-2553], for which the EC50 with MV4;11 cells [11] (setting [15]) worked out at 8.3 ± 1.6 µM; in the assay on RPMI-8226 cells [1] it was 7.2 ± 0.35 µM; in the assay with Molm-13 cells [9] (setting [14]), 3.4 ± 0.4 µM. Besides, at ENL [2] (24 h treatment), the DC50 was determined as 0.0042 µM.
Consider `C[C@H]1CCCN1Cc1nc2cc(NC(=O)c3ccc4c(cnn4CCCCCCCNc4cccc5c4C(=O)N(C4CCC(=O)NC4=O)C5=O)c3)ccc2[nH]1` (stereo partly drawn) [SYC-2554], for which the EC50 in the assay on MV4;11 cells [11] (setting [15]) was found to be 3.7 ± 1.6 µM; in the assay on RPMI-8226 cells [1], 6.4 ± 0.65 µM; with Molm-13 cells [9] (setting [14]) it was 4.4 ± 0.5 µM.
Regarding `C[C@H]1CCCN1Cc1nc2cc(NC(=O)c3ccc4c(cnn4CCCCCCCCCNc4cccc5c4C(=O)N(C4CCC(=O)NC4=O)C5=O)c3)ccc2[nH]1` (stereo partly drawn) [SYC-2555], the EC50 in the assay with MV4;11 cells [11] (setting [15]) was found to be 8.3 ± 0.8 µM; in the assay on RPMI-8226 cells [1], 7.9 ± 0.07 µM; in the assay with Molm-13 cells [9] (setting [14]) it was 4.5 ± 0.6 µM. At ENL [2] (FIGS. 9A-9E), the ENL reduction entry is on record as “did not reduce ENL”.
On the same counts, the results for `C[C@H]1CCCN1Cc1nc2cc(NC(=O)c3ccc4c(cnn4CCCCCCCCCCNc4cccc5c4C(=O)N(C4CCC(=O)NC4=O)C5=O)c3)ccc2[nH]1` (stereo partly drawn) [SYC-2556] are 8.4 ± 1.2 µM, 7.5 ± 0.19 µM, 1.1 ± 0.3 µM and “did not reduce ENL”.
`C[C@H]1CCCN1Cc1nc2cc(NC(=O)c3ccc4c(cnn4CCCCCCCCCCCNc4cccc5c4C(=O)N(C4CCC(=O)NC4=O)C5=O)c3)ccc2[nH]1` (stereo partly drawn) [SYC-2557]: the figures for the EC50 in the assay on MV4;11 cells [11] (setting [15]), in the assay with RPMI-8226 cells [1] (6 days incubation) and in the assay with Molm-13 cells [9] (setting [14]) were 0.94 ± 0.06 µM, 5.5 µM and 0.82 ± 0.2 µM, respectively. Besides, the ENL reduction result at ENL [2] (FIGS. 9A-9E) is reported as “did not reduce ENL”.
On to `C[C@H]1CCCN1Cc1nc2cc(NC(=O)c3ccc4c(cnn4CCCNC(=O)CC45CC6CC(CC(C6)C4)C5)c3)ccc2[nH]1` [SYC-2558], for which, in the assay with Hela cell [7] (3 days incubation), the EC50 worked out at 2.5 ± 1 µM.
Consider `O=C1CCC(N2C(=O)c3ccccc3C2=O)C(=O)N1` (stereo not drawn) [Thalidomide, thalidomide, reference compound], for which the EC50 is above 50 µM in the assay with MV4;11 cells [11] (Homo sapiens, 168 h, MV4;11 cells, 7-day incubation, read-out: EC50, proliferation); above 50 µM in the assay with Molm-13 cells [9] (Homo sapiens, 168 h, Molm-13 cells, 7-day incubation, read-out: EC50, proliferation); above 50 µM in the assay on Molm-13 cells [3]; above 50 µM in the assay with MV4;11 cells [5]; above 50 µM with Hela cell [6]; above 50 µM with RPMI-8226 cells [10]. In addition, the “effect on compound 1-mediated ENL degradation” value at ENL [12] is reported as “dose-dependently inhibit compound 1-mediated ENL degradation”. Also, the “ENL level in the nucleus” value on ENL [13] is “did not reduce”.
In the case of `CC(C)C[C@H](NC(=O)[C@H](Cc1ccccc1)NC(=O)c1cnccn1)B(O)O` [bortezomib], the “effect on compound 1-mediated ENL degradation” value at ENL [12] is listed as “dose-dependently inhibit compound 1-mediated ENL degradation”.

Broadly, the IC50 is the concentration that gives 50% inhibition.
